According to patent US20100210602A1, “PhoU (PerF), A P[…] INVOLVED IN [sequence] FORMATION AND TOLERANCE TO MULTIPLE ANTIBIOTICS AND [sequence] AS A DRUG TARGET FOR [sequence] BACTERIA” (priority 2006, published 2010):
Converted amounts (≈) assume the structure as drawn. Where two headings read alike, the source gives them in different places.

How the values were obtained:
Assay type in all cases: cell-based, M. tuberculosis
PhoY1 mutant [1] = system: PhoY1 mutant
PhoY1 mutant [2] = system: PhoY1 mutant; remark: listed apart in the source
PhoY1 mutant [3] = system: PhoY1 mutant; remark: listed apart in the source
PhoY2 mutant [4] = system: PhoY2 mutant
PhoY2 mutant [5] = system: PhoY2 mutant; remark: listed apart in the source
PhoY2 mutant [6] = system: PhoY2 mutant; remark: listed apart in the source

SMILES	CFU/ml 3 day (PhoY1 mutant [1]; 8 μg/ml)	CFU/ml 9 day (PhoY1 mutant [1]; 8 μg/ml)	PhoY1 MIC (PhoY1 mutant [2]) [µg/mL]	MBC (PhoY1 mutant [3]) [µg/mL]	MIC (PhoY1 mutant [3]) [µg/mL]	PhoY2 MIC (PhoY2 mutant [4]) [µg/mL]	CFU/ml 3 day (PhoY2 mutant [5]; 8 μg/ml)	CFU/ml 9 day (PhoY2 mutant [5]; 8 μg/ml)	MBC (PhoY2 mutant [6]) [µg/mL]	MIC (PhoY2 mutant [6]) [µg/mL]	CFU/ml 3 day (PhoY1 mutant [1]; 200 μg/ml)	CFU/ml 9 day (PhoY1 mutant [1]; 200 μg/ml)	PhoY1 MIC (PhoY1 mutant [2]; pH 5.6) [µg/mL]	MBC (PhoY1 mutant [3]; pH 5.9) [µg/mL]	MIC (PhoY1 mutant [3]; pH 5.9) [µg/mL]	PhoY2 MIC (PhoY2 mutant [4]; pH 5.6) [µg/mL]	CFU/ml 3 day (PhoY2 mutant [5]; 200 μg/ml)	CFU/ml 9 day (PhoY2 mutant [5]; 200 μg/ml)	MBC (PhoY2 mutant [6]; pH 5.9) [µg/mL]	MIC (PhoY2 mutant [6]; pH 5.9) [µg/mL]
CO[C@H]1/C=C/O[C@@]2(C)Oc3c(C)c(O)c4c(O)c(c(/C=N/N5CCN(C)CC5)c(O)c4c3C2=O)NC(=O)/C(C)=C\C=C\[C@H](C)[C@H](O)[C@@H](C)[C@@H](O)[C@@H](C)[C@H](OC(C)=O)[C@@H]1C [RIF, rifampin]	4.97 × 10^5 CFU/ml	3.13 × 10^4 CFU/ml	0.1	0.2 (≈ 0.243 µM)	0.05 (≈ 0.0608 µM)	0.1	2.27 × 10^5 CFU/ml	<10^2 CFU/ml	0.05 (≈ 0.0608 µM)	0.025 (≈ 0.0304 µM)	–	–	–	–	–	–	–	–	–	–
NNC(=O)c1ccncc1 [INH, isoniazid]	–	–	0.1	–	–	0.1	–	–	–	–	–	–	–	–	–	–	–	–	–	–
NC(=O)c1cnccn1 [PZA, pyrazinamide]	–	–	–	–	–	–	–	–	–	–	4.3 × 10^5 CFU/ml	3.3 × 10^3 CFU/ml	200	400 (≈ 3250 µM)	200 (≈ 1620 µM)	100	4.83 × 10^5 CFU/ml	<10^2 CFU/ml	400 (≈ 3250 µM)	100 (≈ 812 µM)
